Patent US11548868B2, “Heterocyclic compounds, compositions comprising heterocyclic compound, and methods of use thereof” (JS INNOPHARM (SHANGHAI) LTD, priority 2017, dated 2023)

Columns and labels:
[1] = target: T1, TDO2 in A172 cancer cells (Homo sapiens, UniProt P48775); experiment: TDO2 Cellular Assay (kynurenine production in A172 cancer cells); format: cell-based; conditions: L-Trp 1 mM, 24 hours incubation, kynurenine at 490 nm
T1 construct: endogenous in cells; host or cells: A172 cancer cells
T1 sequence (P48775 whole entry): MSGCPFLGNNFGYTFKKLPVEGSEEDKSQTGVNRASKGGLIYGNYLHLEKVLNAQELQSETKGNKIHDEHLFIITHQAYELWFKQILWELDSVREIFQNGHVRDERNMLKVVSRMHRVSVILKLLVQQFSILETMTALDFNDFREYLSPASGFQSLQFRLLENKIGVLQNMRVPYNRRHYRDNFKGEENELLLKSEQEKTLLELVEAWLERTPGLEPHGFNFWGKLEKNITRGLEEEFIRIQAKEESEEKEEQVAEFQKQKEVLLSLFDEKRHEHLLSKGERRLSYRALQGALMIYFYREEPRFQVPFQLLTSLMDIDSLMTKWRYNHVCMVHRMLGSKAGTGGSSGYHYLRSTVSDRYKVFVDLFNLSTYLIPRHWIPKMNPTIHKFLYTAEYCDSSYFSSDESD
In short: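 Kynurenine output of A172 cells was read colorimetrically at 490 nm (Ehrlich reagent after TCA hydrolysis at 50 °C). Cells had 1 mM L-Trp plus compound at 0–25 μM in 0.25% DMSO for 24 h; IC50 values were fitted non-linearly from percent inhibition relative to vehicle.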

[2] = target: T2, IDO1 in Hela cancer cells (Homo sapiens, UniProt P14902); experiment: IDO1 Cellular Assay (kynurenine production in IFN-γ stimulated Hela cancer cells); format: cell-based; conditions: human IFN-γ 50 ng/mL, 48 hours incubation, kynurenine at 490 nm
T2 construct: endogenous in cells; host or cells: Hela cancer cells stimulated with human IFN-γ
T2 sequence (P14902 whole entry): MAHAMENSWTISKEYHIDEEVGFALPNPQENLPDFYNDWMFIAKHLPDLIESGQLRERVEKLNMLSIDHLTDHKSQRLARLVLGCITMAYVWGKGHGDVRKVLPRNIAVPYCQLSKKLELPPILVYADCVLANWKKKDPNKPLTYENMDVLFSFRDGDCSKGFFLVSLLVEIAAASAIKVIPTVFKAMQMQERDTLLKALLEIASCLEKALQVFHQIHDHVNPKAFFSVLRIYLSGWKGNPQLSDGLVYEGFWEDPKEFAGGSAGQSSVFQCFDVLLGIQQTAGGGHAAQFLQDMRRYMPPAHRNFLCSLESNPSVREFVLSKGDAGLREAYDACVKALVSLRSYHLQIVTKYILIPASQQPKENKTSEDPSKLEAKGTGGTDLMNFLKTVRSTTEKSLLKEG
In short: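 HeLa cells stimulated with 50 ng/mL IFN-γ (final) and treated 48 h with compound (0–25 μM final, 0.25% DMSO). Supernatant kynurenine measured after TCA hydrolysis and p-dimethylaminobenzaldehyde reaction at 490 nm; inhibition vs DMSO control, IC50 by non-linear regression.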

SMILES | IC50 [1] [µM] | IC50 [2] [µM]
CS(=O)(=O)c1cccc(C(=O)N[C@H]2[C@@H]3C[C@@](O)(c4cc(Cl)cc5[nH]ncc45)C[C@@H]32)c1 [Example 153, N-((1R,3r,5S,6r)-3-(6-chloro-1H-indazol-4-yl)-3-hydroxybicyclo[3.1.0]hexan-6-yl)-3-(methylsulfonyl)benzamide] | ≤ 0.5 | 1 to 5
O=C(N[C@H]1[C@@H]2C[C@@](O)(c3cc(Cl)cc4[nH]ncc34)C[C@@H]21)c1ccnc2ccc(F)cc12 [Example 177, N-((1R,3r,5S,6r)-3-(6-chloro-1H-indazol-4-yl)-3-hydroxybicyclo[3.1.0]hexan-6-yl)-6-fluoroquinoline-4-carboxamide] | ≤ 0.5 | 0.5 to 1
O=C(N[C@H]1[C@@H]2C[C@@](O)(c3cc(Cl)cc4[nH]ncc34)C[C@@H]21)c1cncc(Cl)c1 [Example 179, 5-chloro-N-((1R,3r,5S,6r)-3-(6-chloro-1H-indazol-4-yl)-3-hydroxybicyclo[3.1.0]hexan-6-yl)nicotinamide] | ≤ 0.5 | ≤ 0.5
O=C(N[C@H]1[C@@H]2C[C@@](O)(c3cc(Cl)cc4[nH]ncc34)C[C@@H]21)c1cccc(C(F)(F)F)c1 [Example 142, N-((1R,3r,5S,6r)-3-(6-chloro-1H-indazol-4-yl)-3-hydroxybicyclo[3.1.0]hexan-6-yl)-3-(trifluoromethyl)benzamide] | ≤ 0.5 | ≤ 0.5
CC(=O)N[C@H]1[C@@H]2C[C@@](O)(c3cc(Cl)cc4[nH]ncc34)C[C@@H]21 [Example 64, N-((1R,3r,5S,6r)-3-(6-chloro-1H-indazol-4-yl)-3-hydroxybicyclo[3.1.0]hexan-6-yl)acetamide] | ≤ 0.5 | > 5
O=C(N[C@H]1[C@@H]2C[C@@](O)(c3cc(Cl)cc4cn[nH]c34)C[C@@H]21)c1ccncc1 [Example 130, N-((1R,3r,5S,6r)-3-(5-chloro-1H-indazol-7-yl)-3-hydroxybicyclo[3.1.0]hexan-6-yl)isonicotinamide] | 1 to 5 | 0.5 to 1
O=S(=O)(N[C@H]1[C@@H]2C[C@@](O)(c3cc(Cl)cc4cn[nH]c34)C[C@@H]21)c1ccccc1 [Example 131, N-((1R,3r,5S,6r)-3-(5-chloro-1H-indazol-7-yl)-3-hydroxybicyclo[3.1.0]hexan-6-yl)benzenesulfonamide] | 1 to 5 | > 5
CC(=O)N[C@H]1C[C@@H]2C[C@@](O)(c3cc(Cl)cc4[nH]ncc34)C[C@@H]2C1 [Example 167, N-((2r,3aR,5r,6aS)-5-(6-chloro-1H-indazol-4-yl)-5-hydroxyoctahydropentalen-2-yl)acetamide] | ≤ 0.5 | > 5
CC(=O)N1C[C@@H]2CN(c3c(C(F)(F)F)ccc4cncn34)C[C@@H]2C1(C)C (racemic) [Example 47, Racemic-1-((3aS,6aR)-1,1-dimethyl-5-(6-(trifluoromethyl)imidazo[1,5-a]pyridin-5-yl)hexahydropyrrolo[3,4-c]pyrrol-2(1H)-yl)ethanone] | > 5 | > 5
N#CCC(=O)N[C@H]1[C@@H]2C[C@@](O)(c3cc(Cl)cc4[nH]ncc34)C[C@@H]21 [Example 137, N-((1R,3r,5S,6r)-3-(6-chloro-1H-indazol-4-yl)-3-hydroxybicyclo[3.1.0]hexan-6-yl)-2-cyanoacetamide] | ≤ 0.5 | 1 to 5
O=C(C1CCOCC1)N1C[C@@H]2C[C@@](O)(c3cc(Cl)cc4cn[nH]c34)C[C@@H]2C1 [Example 97, ((3aR,5r,6aS)-5-(5-chloro-1H-indazol-7-yl)-5-hydroxyhexahydrocyclopenta[c]pyrrol-2(1H)-yl)(tetrahydro-2H-pyran-4-yl)methanone] | > 5 | > 5
CS(=O)(=O)N1C[C@H]2CC(C(O)c3cc(Cl)cc4cn[nH]c34)C[C@H]2C1 (stereo partly drawn) [Example 113, (5-chloro-1H-indazol-7-yl)((3aR,6aS)-2-(methylsulfonyl)octahydrocyclopenta[c]pyrrol-5-yl)methanol] | 1 to 5 | 1 to 5
O=C(N[C@H]1[C@@H]2C[C@@](O)(c3cc(Cl)cc4[nH]ncc34)C[C@@H]21)c1ccccc1 [Example 93, N-((1R,3r,5S,6r)-3-(6-chloro-1H-indazol-4-yl)-3-hydroxybicyclo[3.1.0]hexan-6-yl)benzamide] | ≤ 0.5 | 0.5 to 1
OCC1[C@H]2C[C@](O)(c3cc(Cl)cc4[nH]ncc34)C[C@@H]12 (stereo partly drawn) [Example 111, (1R,3r,5S)-3-(6-chloro-1H-indazol-4-yl)-6-(hydroxymethyl)bicyclo[3.1.0]hexan-3-ol] | ≤ 0.5 | 1 to 5
CC1(C)[C@H]2CN(c3c(C(F)(F)F)ccc4cncn34)C[C@H]2CN1S(C)(=O)=O (racemic) [Example 48, Racemic-5-((3aR,6aS)-4,4-dimethyl-5-(methylsulfonyl)hexahydropyrrolo[3,4-c]pyrrol-2(1H)-yl)-6-(trifluoromethyl)imidazo[1,5-a]pyridine] | > 5 | > 5
CC(=O)N1C[C@@H]2CN(c3cc(C(F)(F)F)cc4cncn34)C[C@@H]2C1(C)C (racemic) [Example 51, Racemic-1-((3aS,6aR)-1,1-dimethyl-5-(7-(trifluoromethyl)imidazo[1,5-a]pyridin-5-yl)hexahydropyrrolo[3,4-c]pyrrol-2(1H)-yl)ethanone] | > 5 | > 5
O=C(N[C@H]1[C@@H]2C[C@@](O)(c3cc(Cl)cc4[nH]ncc34)C[C@@H]21)c1ccc(F)c(C(F)(F)F)c1 [Example 172, N-((1R,3r,5S,6r)-3-(6-chloro-1H-indazol-4-yl)-3-hydroxybicyclo[3.1.0]hexan-6-yl)-4-fluoro-3-(trifluoromethyl)benzamide] | ≤ 0.5 | ≤ 0.5
CS(=O)(=O)N[C@H]1[C@@H]2C[C@@](O)(c3cc(C(F)(F)F)cc4[nH]ncc34)C[C@@H]21 [Example 10, N-((1R,3r,5S,6r)-3-hydroxy-3-(6-(trifluoromethyl)-1H-indazol-4-yl)bicyclo[3.1.0]hexan-6-yl)methanesulfonamide] | ≤ 0.5 | 1 to 5
CNC(=O)N[C@H]1[C@@H]2C[C@@](O)(c3cc(Cl)cc4[nH]ncc34)C[C@@H]21 [Example 114, 1-((1R,3r,5S,6r)-3-(6-chloro-1H-indazol-4-yl)-3-hydroxybicyclo[3.1.0]hexan-6-yl)-3-methylurea] | ≤ 0.5 | > 5
O=C(N[C@H]1[C@@H]2C[C@@](O)(c3cc(Cl)cc4[nH]ncc34)C[C@@H]21)c1ccnc(OC(F)(F)F)c1 [Example 161, N-((1R,3r,5S,6r)-3-(6-chloro-1H-indazol-4-yl)-3-hydroxybicyclo[3.1.0]hexan-6-yl)-2-(trifluoromethoxy)isonicotinamide] | ≤ 0.5 | ≤ 0.5
O=C(N[C@H]1[C@@H]2C[C@@](O)(c3cc(Cl)cc4[nH]ncc34)C[C@@H]21)c1ccc(F)c(Cl)c1 [Example 150, 3-chloro-N-((1R,3r,5S,6r)-3-(6-chloro-1H-indazol-4-yl)-3-hydroxybicyclo[3.1.0]hexan-6-yl)-4-fluorobenzamide] | ≤ 0.5 | ≤ 0.5
C#Cc1cccc(C(=O)N[C@H]2[C@@H]3C[C@@](O)(c4cc(Cl)cc5[nH]ncc45)C[C@@H]32)c1 [Example 174, N-((1R,3r,5S,6r)-3-(6-chloro-1H-indazol-4-yl)-3-hydroxybicyclo[3.1.0]hexan-6-yl)-3-ethynylbenzamide] | ≤ 0.5 | ≤ 0.5
NC(=O)N[C@H]1[C@@H]2C[C@@](O)(c3cc(Cl)cc4[nH]ncc34)C[C@@H]21 [Example 135, 1-((1R,3r,5S,6r)-3-(6-chloro-1H-indazol-4-yl)-3-hydroxybicyclo[3.1.0]hexan-6-yl)urea] | ≤ 0.5 | > 5
O=C(c1ccncc1)N1C[C@@H]2C[C@@](O)(c3cc(Cl)cc4[nH]ncc34)C[C@@H]2C1 [Example 40, ((3aR,5r,6aS)-5-(6-chloro-1H-indazol-4-yl)-5-hydroxyhexahydrocyclopenta[c]pyrrol-2(1H)-yl)(pyridin-4-yl)methanone] | ≤ 0.5 | > 5
CNC(=O)N[C@H]1[C@@H]2C[C@@](O)(c3cc(Cl)cc4cn[nH]c34)C[C@@H]21 [Example 133, 1-((1R,3r,5S,6r)-3-(5-chloro-1H-indazol-7-yl)-3-hydroxybicyclo[3.1.0]hexan-6-yl)-3-methylurea] | 1 to 5 | > 5
